Measured values from ChEMBL document CHEMBL5365543, “Benzamidine Conjugation Converts Expelled Potential Active Agents into Antifungals against Drug-Resistant Fungi” (J Med Chem, 2023).
In brackets after ≈: the same amount, converted by molar mass. Activity calls are given as the source filed them. The rule behind the calls is not given here.

Tests used:
Candida albicans [1] = assay: microbe, parasite or virus in culture; type: functional; conditions: DSY654, time 24 hrs
Description: Antifungal activity against efflux pump-deficient Candida albicans DSY654 assessed as inhibition of fungal growth measured after 24 hrs by CLSI based microtiter plate analysis

Candida albicans [2] = assay: Antifungal activity against wild-type Candida albicans SC5314 assessed as inhibition of fungal growth measured after 24 hrs by CLSI based microtiter plate analysis; type: functional
Candida albicans [3] = assay: Drug accumulation in Candida albicans SC5314 measured per 10^8 cells incubated for 3 hrs by HPLC analysis; type: functional, organism-based
[4] = Cytotoxicity against human HBE cells assessed as inhibition of cell growth measured after 4 hrs by MTT assay; type: toxicity, cell-based
[5] = Cytotoxicity against mouse L929 cells assessed as inhibition of cell growth measured after 4 hrs by MTT assay; type: toxicity, cell-based
[6] = Induction of hemolysis in mouse RBC cells at 2 to 32 microg/ml incubated for 60 mins by absorbance based analysis; type: toxicity, cell-based, Erythrocyte; conditions: red blood cells (erythrocytes), at 2 to 32 µg/mL, dose 2-32 µg/ml, read-out: Activity
Candida albicans [7] = assay: Antifungal activity against clinical isolate Candida albicans YEM13 overexpressing efflux pump MdrL assessed as inhibition of fungal growth measured after 24 hrs by CLSI based microtiter plate analysis; type: functional
Candida albicans [8] = assay: Antifungal activity against clinical isolate Candida albicans YEM15 overexpressing efflux pump CdrL and Cdr2 assessed as inhibition of fungal growth measured after 24 hrs by CLSI based microtiter plate analysis; type: functional
Candida albicans [9] = assay: Antifungal activity against clinical isolate Candida albicans SCUPC2R14MPG2A harbouring UPC2 mutation overexpressing […] Erg11 assessed as inhibition of fungal growth measured after 24 hrs by CLSI based microtiter plate analysis; type: functional
Candida albicans [10] = assay: Antifungal activity against clinical isolate Candida albicans SCMRRIR34MPG2A harbouring MRR1 mutation overexpressing efflux pump MdrL assessed as inhibition of fungal growth measured after 24 hrs by CLSI based microtiter plate analysis; type: functional
Candida albicans [11] = assay: Antifungal activity against clinical isolate fluconazole-resistant Candida albicans DSY296 harbouring TAC1 mutation overexpressing efflux pump CdrL and Cdr2 assessed as inhibition of fungal growth measured after 24 hrs by CLSI based microtiter plate analysis; type: functional
Candida albicans [12] = assay: Antifungal activity against clinical isolate fluconazole-resistant Candida albicans G5 harbouring MRR1 mutation overexpressing MdrL assessed as inhibition of fungal growth measured after 24 hrs by CLSI based microtiter plate analysis; type: functional
Candida albicans [13] = assay: Antifungal activity against clinical isolate fluconazole-resistant Candida albicans Gu5 harbouring TAC1 mutation overexpressing efflux pump CdrL and Cdr2 assessed as inhibition of fungal growth measured after 24 hrs by CLSI based microtiter plate analysis; type: functional
Candida albicans [14] = assay: Antifungal activity against clinical isolate fluconazole-resistant Candida albicans CA632 assessed as inhibition of fungal growth measured after 24 hrs by CLSI based microtiter plate analysis; type: functional
[Candida] auris [15] = Antifungal activity against clinical isolate fluconazole-resistant Candida auris CBS12774 assessed as inhibition of fungal growth measured after 24 hrs by CLSI based microtiter plate analysis; type: functional; conditions: Candidozyma auris
[Candida] auris [16] = Antifungal activity against clinical isolate fluconazole-resistant Candida auris CBS12776 assessed as inhibition of fungal growth measured after 24 hrs by CLSI based microtiter plate analysis; type: functional; conditions: Candidozyma auris
Nakaseomyces glabratus = assay: Antifungal activity against clinical isolate fluconazole-resistant Candida glabrata CG2 assessed as inhibition of fungal growth measured after 24 hrs by CLSI based microtiter plate analysis; type: functional
Cryptococcus neoformans = assay: Antifungal activity against clinical isolate fluconazole-resistant Cryptococcus neoformans H99 assessed as inhibition of fungal growth measured after 24 hrs by CLSI based microtiter plate analysis; type: functional
Candida tropicalis = assay: Antifungal activity against clinical isolate fluconazole-resistant Candida tropicalis CT10 assessed as inhibition of fungal growth measured after 24 hrs by CLSI based microtiter plate analysis; type: functional
[17] = Drug accumulation in wild-type Candida albicans SC5314 at 50 microg/ml incubated for 3 hrs by HPLC analysis; type: ADME; conditions: dose 50 µg/ml
Candida albicans [18] = assay: Induction of drug resistance in wild-type Candida albicans SC5314 assessed as change in MIC at 0.5 times of MIC measured after 30 passages by broth microdilution method; type: functional
[19] = Candida albicans, SC5314, read-out: MIC80
[20] = Candida albicans, SC5314, 24 h, read-out: MIC80

MIC80 (Candida albicans [1]) | MIC80 (Candida albicans [2]; [19]) | SMILES | MIC80 (Candida albicans [2]; [20]) | IC50 at 4 h [4] | IC50 at 4 h [5] | hemolysis at 1 h [6] | MIC80 (Candida albicans [7]) | MIC80 (Candida albicans [8]) | MIC80 (Candida albicans [9]) | MIC80 (Candida albicans [10]) | MIC80 (Candida albicans [11]) | MIC80 (Candida albicans [12]) | MIC80 (Candida albicans [13]) | MIC80 (Candida albicans [14]) | MIC80 ([Candida] auris [15]) | MIC80 ([Candida] auris [16]) | MIC80 (Nakaseomyces glabratus) | MIC80 (Cryptococcus neoformans) | MIC80 (Candida tropicalis) | Drug uptake [17] | other results
32 µg/mL (≈ 105 µM) | > 256 µg/mL | C=C1C[C@@]23CC[C@@H]4[C@](C)(CN)CCC[C@@]4(C)[C@@H]2CC[C@]1(O)C3 | – | – | – | – | – | – | – | – | – | – | – | – | – | – | – | – | – | – | Drug uptake (Candida albicans [3]): inactive
8 µg/mL | 16 µg/mL | C=C1C[C@@]23CC[C@H]4[C@@](C)(CCC[C@@]4(C)C(=O)OCCCn4c(CC)[n+](C)c5ccccc54)[C@@H]2CC[C@]1(O)C3.[I-] | – | > 32 µg/mL | 16.5 µg/mL | < 2% | – | – | – | – | – | – | – | – | – | – | – | – | – | – | –
256 µg/mL (≈ 804 µM) | > 256 µg/mL | C=C1C[C@@]23CC[C@H]4[C@@](C)(CCC[C@@]4(C)C(=O)O)[C@@H]2CC[C@]1(O)C3 [STEVIOL] | – | – | – | – | – | – | – | – | – | – | – | – | – | – | – | – | – | – | MIC (Candida albicans [1]): 256 µg/mL (≈ 804 µM); Drug uptake (Candida albicans [3]): inactive
– | – | Cc1ccc(Sc2ccccc2N2CCN(CCCOc3ccc(C(=N)N)cc3)CC2)c(C)c1 | 4 µg/mL (≈ 8.43 µM) | – | – | – | 4 µg/mL (≈ 8.43 µM) | 4 µg/mL (≈ 8.43 µM) | 4 µg/mL (≈ 8.43 µM) | 4 µg/mL (≈ 8.43 µM) | 4 µg/mL (≈ 8.43 µM) | 8 µg/mL (≈ 16.9 µM) | 4 µg/mL (≈ 8.43 µM) | 4 µg/mL (≈ 8.43 µM) | 8 µg/mL (≈ 16.9 µM) | 8 µg/mL (≈ 16.9 µM) | 8 µg/mL (≈ 16.9 µM) | 4 µg/mL (≈ 8.43 µM) | 4 µg/mL (≈ 8.43 µM) | Active | MIC (Candida albicans [2]): inactive
– | – | CC/C(=C(/CC)c1ccc(OCCCOc2ccc(C(=N)N)cc2)cc1)c1ccc(O)cc1 | 4 µg/mL (≈ 9 µM) | – | – | – | 4 µg/mL (≈ 9 µM) | 4 µg/mL (≈ 9 µM) | 4 µg/mL (≈ 9 µM) | 4 µg/mL (≈ 9 µM) | 4 µg/mL (≈ 9 µM) | 4 µg/mL (≈ 9 µM) | 4 µg/mL (≈ 9 µM) | 4 µg/mL (≈ 9 µM) | 4 µg/mL (≈ 9 µM) | 4 µg/mL (≈ 9 µM) | 8 µg/mL (≈ 18 µM) | 8 µg/mL (≈ 18 µM) | 4 µg/mL (≈ 9 µM) | Active | MIC (Candida albicans [2]): inactive
16 µg/mL | 16 µg/mL | C=C1C[C@@]23CC[C@H]4[C@@](C)(CCC[C@@]4(C)C(=O)OCCC[P+](c4ccccc4)(c4ccccc4)c4ccccc4)[C@@H]2CC[C@]1(O)C3.[I-] | – | 3.59 µg/mL | 6.94 µg/mL | 5.9% | – | – | – | – | – | – | – | – | – | – | – | – | – | – | –
– | – | C=CCc1ccc(O)c(-c2ccc(OCCCOc3ccc(C(=N)N)cc3)c(CC=C)c2)c1 | 8 µg/mL (≈ 18.1 µM) | – | – | – | 8 µg/mL (≈ 18.1 µM) | 8 µg/mL (≈ 18.1 µM) | 8 µg/mL (≈ 18.1 µM) | 8 µg/mL (≈ 18.1 µM) | 8 µg/mL (≈ 18.1 µM) | 8 µg/mL (≈ 18.1 µM) | 8 µg/mL (≈ 18.1 µM) | 8 µg/mL (≈ 18.1 µM) | 8 µg/mL (≈ 18.1 µM) | 16 µg/mL (≈ 36.2 µM) | 16 µg/mL (≈ 36.2 µM) | 8 µg/mL (≈ 18.1 µM) | 16 µg/mL (≈ 36.2 µM) | Active | MIC (Candida albicans [2]): inactive

SMILES | MIC80 (Candida albicans [1]) | MIC80 (Candida albicans [2]; [19]) | MIC80 (Candida albicans [2]; [20]) | IC50 at 4 h [4] | IC50 at 4 h [5] | hemolysis at 1 h [6] | MIC80 (Candida albicans [7]) | MIC80 (Candida albicans [8]) | MIC80 (Candida albicans [9]) | MIC80 (Candida albicans [10]) | MIC80 (Candida albicans [11]) | MIC80 (Candida albicans [12]) | MIC80 (Candida albicans [13]) | MIC80 (Candida albicans [14]) | MIC80 ([Candida] auris [15]) | MIC80 ([Candida] auris [16]) | MIC80 (Nakaseomyces glabratus) | MIC80 (Cryptococcus neoformans) | MIC80 (Candida tropicalis) | Drug uptake [17] | other results
C=C1C[C@@]23CC[C@H]4[C@@](C)(CCC[C@@]4(C)C(=O)OCCCOc4ccc(C(=N)N)cc4)[C@@H]2CC[C@]1(O)C3 | 2 µg/mL (≈ 4.04 µM) | – | 4 µg/mL (≈ 8.09 µM) | > 32 µg/mL | 23.6 µg/mL (≈ 47.7 µM) | < 2% | 8 µg/mL (≈ 16.2 µM) | 8 µg/mL (≈ 16.2 µM) | 8 µg/mL (≈ 16.2 µM) | 8 µg/mL (≈ 16.2 µM) | 8 µg/mL (≈ 16.2 µM) | 8 µg/mL (≈ 16.2 µM) | 8 µg/mL (≈ 16.2 µM) | 8 µg/mL (≈ 16.2 µM) | 16 µg/mL (≈ 32.3 µM) | 16 µg/mL (≈ 32.3 µM) | 8 µg/mL (≈ 16.2 µM) | 16 µg/mL (≈ 32.3 µM) | 8 µg/mL (≈ 16.2 µM) | Active | MIC80 (Candida albicans [2]; 24 h): 8 µg/mL (≈ 16.2 µM)
N=C(N)c1ccc(OCCCOC(=O)c2ccccc2Nc2cccc(C(F)(F)F)c2)cc1 | – | 8 µg/mL (≈ 17.5 µM) | – | – | – | – | – | – | – | – | – | – | – | – | – | – | – | – | – | Active | Activity (Candida albicans [18]): Active
